We go through one compound from ChEMBL document CHEMBL4190187, “Discovery of pyrazolopyrimidine derivatives as novel inhibitors of ataxia telangiectasia and rad3 related protein (ATR)” (Bioorg Med Chem Lett, 2017).

For assay [1], the target named is Serine/threonine-protein kinase ULK2 (Homo sapiens) (UniProt Q8IYT8). The experiment in a line: Inhibition of recombinant human ULK2 (1 to 306 residues) at 1 uM using casein as substrate after 40 mins in presence of [gamma-33P]ATP by scintillation counting method.
Chain of Serine/threonine-protein kinase ULK2 (Homo sapiens) (Q8IYT8 whole entry, the tested form may be a part): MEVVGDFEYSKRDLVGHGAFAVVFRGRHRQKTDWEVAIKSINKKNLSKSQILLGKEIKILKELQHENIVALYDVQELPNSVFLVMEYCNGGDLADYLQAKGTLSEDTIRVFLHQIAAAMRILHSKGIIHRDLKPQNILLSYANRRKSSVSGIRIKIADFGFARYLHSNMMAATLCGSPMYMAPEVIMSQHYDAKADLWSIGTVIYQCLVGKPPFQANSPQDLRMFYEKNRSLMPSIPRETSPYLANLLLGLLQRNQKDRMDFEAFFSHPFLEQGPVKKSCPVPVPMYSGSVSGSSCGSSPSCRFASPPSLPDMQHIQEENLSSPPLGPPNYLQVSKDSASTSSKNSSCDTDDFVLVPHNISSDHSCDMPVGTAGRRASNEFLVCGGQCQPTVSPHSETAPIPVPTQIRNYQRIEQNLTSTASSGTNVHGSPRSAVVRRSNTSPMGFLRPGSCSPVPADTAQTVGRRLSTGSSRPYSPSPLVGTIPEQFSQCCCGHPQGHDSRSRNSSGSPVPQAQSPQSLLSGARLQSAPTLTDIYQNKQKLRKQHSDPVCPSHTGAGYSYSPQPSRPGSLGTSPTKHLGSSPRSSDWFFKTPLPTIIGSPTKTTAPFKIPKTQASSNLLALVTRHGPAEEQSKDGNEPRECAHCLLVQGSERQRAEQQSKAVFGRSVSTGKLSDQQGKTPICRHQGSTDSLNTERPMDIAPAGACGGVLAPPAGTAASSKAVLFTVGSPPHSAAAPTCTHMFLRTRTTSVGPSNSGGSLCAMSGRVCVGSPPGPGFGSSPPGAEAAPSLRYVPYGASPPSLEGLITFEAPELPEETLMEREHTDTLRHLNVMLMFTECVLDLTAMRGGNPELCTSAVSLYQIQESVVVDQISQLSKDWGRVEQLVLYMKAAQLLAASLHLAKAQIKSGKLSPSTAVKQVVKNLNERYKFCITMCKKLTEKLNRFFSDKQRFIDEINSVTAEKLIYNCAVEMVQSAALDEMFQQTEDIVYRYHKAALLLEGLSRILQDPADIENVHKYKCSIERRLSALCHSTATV
Assay [2] deals with Hepatocyte growth factor receptor (Homo sapiens) (UniProt P08581). The experiment in a line: Inhibition of recombinant human Met (974 to end residues) at 1 uM using KKKGQEEEYVFIE as substrate after 40 mins in presence of [gamma-33P]ATP by scintillation counting method.
Assay [3] addresses Serine/threonine-protein kinase BRSK2 (Homo sapiens) (UniProt Q8IWQ3). The experiment in a line: Inhibition of recombinant human BrSK2 (2 to end residues) at 1 uM using KKLNRTLSFAEPG as substrate after 40 mins in presence of [gamma-33P]ATP by scintillation counting method.
In assay [4] the test system is Hepatocyte growth factor receptor (Homo sapiens), P08581 [Y1248H]. Briefly: Inhibition of recombinant human Met Y1248H mutant (974 to end residues) at 1 uM using KKKGQEEEYVFIE as substrate after 40 mins in presence of [gamma-33P]ATP by scintillation counting method.
In assay [5] the test system is PI3-kinase p110-alpha/p85-alpha (Homo sapiens), P27986+P42336 [H1047R]. Briefly: Inhibition of recombinant full-length human p110a H1047R mutant/p85a at 1 uM using phosphatidylinositol 4,5-bisphosphate as substrate after 40 mins in presence of [gamma-33P]ATP by scintillation counting method. It is filed as protein-complex assay.
In assay [6] the target is Mitogen-activated protein kinase kinase kinase 3 (Homo sapiens) (UniProt Q99759). Briefly: Inhibition of recombinant full-length human MEKK3 at 1 uM using MBP as substrate after 40 mins in presence of [gamma-33P]ATP by scintillation counting method.
The target in assay [7] is Serine/threonine-protein kinase Nek9 (Homo sapiens) (UniProt Q8TD19). Briefly: Inhibition of recombinant human NEK9 (1 to 324 residues) at 1 uM using myelin basic protein as substrate after 40 mins in presence of [gamma-33P]ATP by scintillation counting method.
Chain of Serine/threonine-protein kinase Nek9 (Homo sapiens) (Q8TD19 whole entry, the tested form may be a part): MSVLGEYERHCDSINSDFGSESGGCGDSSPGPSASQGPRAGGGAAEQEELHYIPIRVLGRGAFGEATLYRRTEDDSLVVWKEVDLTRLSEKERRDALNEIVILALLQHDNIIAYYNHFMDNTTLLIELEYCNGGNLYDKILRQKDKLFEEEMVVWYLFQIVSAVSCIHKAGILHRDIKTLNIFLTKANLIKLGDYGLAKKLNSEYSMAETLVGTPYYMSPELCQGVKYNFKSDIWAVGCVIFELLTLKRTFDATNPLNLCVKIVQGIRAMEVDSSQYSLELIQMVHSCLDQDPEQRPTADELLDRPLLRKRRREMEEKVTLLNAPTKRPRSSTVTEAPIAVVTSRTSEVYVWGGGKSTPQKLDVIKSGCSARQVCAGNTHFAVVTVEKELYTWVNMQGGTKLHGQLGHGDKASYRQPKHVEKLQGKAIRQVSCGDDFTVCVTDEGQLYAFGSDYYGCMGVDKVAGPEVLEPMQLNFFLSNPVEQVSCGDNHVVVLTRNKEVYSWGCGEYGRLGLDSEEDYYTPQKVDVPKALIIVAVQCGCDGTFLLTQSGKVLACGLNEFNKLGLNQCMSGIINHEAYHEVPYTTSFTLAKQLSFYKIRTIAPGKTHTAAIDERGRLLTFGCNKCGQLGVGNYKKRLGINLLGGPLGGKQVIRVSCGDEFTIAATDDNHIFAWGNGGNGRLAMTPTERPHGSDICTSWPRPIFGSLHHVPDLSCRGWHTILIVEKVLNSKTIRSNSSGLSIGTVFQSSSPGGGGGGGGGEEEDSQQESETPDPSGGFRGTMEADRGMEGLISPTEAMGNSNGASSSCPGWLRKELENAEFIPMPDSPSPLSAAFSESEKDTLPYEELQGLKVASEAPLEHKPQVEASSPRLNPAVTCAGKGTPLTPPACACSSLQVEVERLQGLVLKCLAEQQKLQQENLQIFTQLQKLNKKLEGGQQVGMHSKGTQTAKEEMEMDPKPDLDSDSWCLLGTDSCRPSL
Assay [8] addresses Cyclin-dependent kinase 2/cyclin E1 (Homo sapiens) (UniProt P24864+P24941). Briefly: Inhibition of recombinant full-length human CDK2/Cyclin E at 1 uM using histone H1 as substrate after 40 mins in presence of [gamma-33P]ATP by scintillation counting method. The format is protein-complex assay.
Assay [9] addresses Tyrosine-protein kinase Fgr (Homo sapiens) (UniProt P09769). Briefly: Inhibition of recombinant human FGR (2 to end residues) at 1 uM using poly(Glu,Tyr) 4:1 as substrate after 40 mins in presence of [gamma-33P]ATP by scintillation counting method.
Another assay concerns Saccharomyces cerevisiae. The experiment in a line: Inhibition of recombinant Saccharomyces cerevisiae CK1alpha (2 to 298 residues) at 1 uM using KRRRALS(p)VASLPGL as substrate after 40 mins in presence of [gamma-33P]ATP by scintillation counting method.
Assay [10] deals with RAC-alpha serine/threonine-protein kinase (Homo sapiens) (UniProt P31749). The experiment in a line: Inhibition of recombinant full-length human PKBalpha at 1 uM using GRPRTSSFAEGKK as substrate after 40 mins in presence of [gamma-33P]ATP by scintillation counting method.
Chain of RAC-alpha serine/threonine-protein kinase (Homo sapiens) (P31749 whole entry): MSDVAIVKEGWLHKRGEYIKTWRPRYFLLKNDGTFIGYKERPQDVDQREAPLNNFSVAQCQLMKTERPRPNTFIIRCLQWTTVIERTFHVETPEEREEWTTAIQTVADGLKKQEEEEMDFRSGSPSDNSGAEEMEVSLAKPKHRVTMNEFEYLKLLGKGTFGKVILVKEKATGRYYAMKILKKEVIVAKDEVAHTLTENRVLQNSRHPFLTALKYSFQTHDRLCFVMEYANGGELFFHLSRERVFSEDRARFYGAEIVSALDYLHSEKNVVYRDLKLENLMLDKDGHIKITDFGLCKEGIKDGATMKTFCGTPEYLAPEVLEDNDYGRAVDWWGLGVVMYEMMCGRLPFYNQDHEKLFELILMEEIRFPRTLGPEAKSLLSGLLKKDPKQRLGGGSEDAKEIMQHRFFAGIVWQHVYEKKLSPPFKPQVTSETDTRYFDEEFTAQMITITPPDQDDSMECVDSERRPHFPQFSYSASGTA
For assay [11], the target named is Tyrosine-protein kinase SYK (Homo sapiens) (UniProt P43405). Briefly: Inhibition of recombinant full-length human Syk at 1 uM using poly(Glu,Tyr) 4:1 as substrate after 40 mins in presence of [gamma-33P]ATP by scintillation counting method.
Assay [12] addresses Discoidin domain-containing receptor 2 (Homo sapiens) (UniProt Q16832). Briefly: Inhibition of recombinant human DDR2 (467 to end residues) at 1 uM using KKSRGDYMTMQIG as substrate after 40 mins in presence of [gamma-33P]ATP by scintillation counting method.
In assay [13] the target is Serine/threonine-protein kinase B-raf (Homo sapiens) (UniProt P15056). Briefly: Inhibition of recombinant human B-raf (416 to end residues) at 1 uM using myelin basic protein as substrate after 40 mins in presence of [gamma-33P]ATP by scintillation counting method.
Assay [14] deals with Tyrosine-protein kinase Fes/Fps (Homo sapiens) (UniProt P07332). The experiment in a line: Inhibition of recombinant human FES (2 to end residues) at 1 uM using poly(Glu,Tyr) 4:1 as substrate after 40 mins in presence of [gamma-33P]ATP by scintillation counting method.
For assay [15], the target named is Serine/threonine-protein kinase D3 (Homo sapiens) (UniProt O94806). The experiment in a line: Inhibition of recombinant full-length human PKD3 at 1 uM using KKLRRTLSVA as substrate after 40 mins in presence of [gamma-33P]ATP by scintillation counting method.
Assay [16] concerns the target Serine/threonine-protein kinase 17A (Homo sapiens) (UniProt Q9UEE5). Briefly: Inhibition of recombinant full-length human DRAK1 at 1 uM using KKLNRTLSFAEPG as substrate after 40 mins in presence of [gamma-33P]ATP by scintillation counting method.
The target of assay [17] is cAMP-dependent protein kinase catalytic subunit PRKX (Homo sapiens) (UniProt P51817). Briefly: Inhibition of recombinant full-length human PRKX at 1 uM using RRRLSFAEPG as substrate after 40 mins in presence of [gamma-33P]ATP by scintillation counting method.
For assay [18], the target named is Calcium/calmodulin-dependent protein kinase type II subunit beta (Homo sapiens) (UniProt Q13554). Briefly: Inhibition of recombinant human CAMK2beta (1 to 315 residues) at 1 uM using […] after 40 mins in presence of [gamma-33P]ATP by scintillation counting method.
The target of assay [19] is Tau-tubulin kinase 1 (Homo sapiens) (UniProt Q5TCY1). Briefly: Inhibition of recombinant human TTBK1 (1 to 479 residues) at 1 uM using casein as substrate after 40 mins in presence of [gamma-33P]ATP by scintillation counting method.
Assay [20] addresses Mitogen-activated protein kinase 1 (Homo sapiens) (UniProt P28482). Briefly: Inhibition of recombinant full-length human MAPK2 at 1 uM using myelin basic protein as substrate after 40 mins in presence of [gamma-33P]ATP by scintillation counting method.
The target in assay [21] is Dual specificity tyrosine-phosphorylation-regulated kinase 1B (Homo sapiens) (UniProt Q9Y463). Briefly: Inhibition of recombinant full-length human DYRK1B at 1 uM using RRRFRPASPLRGPPK as substrate after 40 mins in presence of [gamma-33P]ATP by scintillation counting method.
Assay [22] has as its target Epidermal growth factor receptor (Homo sapiens) (UniProt P00533). The experiment in a line: Inhibition of recombinant human EGFR (696 to end residues) at 1 uM using poly(Glu,Tyr) 4:1 as substrate after 40 mins in presence of [gamma-33P]ATP by scintillation counting method.
The target of assay [23] is Serine/threonine-protein kinase DCLK3 (Homo sapiens) (UniProt Q9C098). The experiment in a line: Inhibition of recombinant human DCAMKL3 (345 to end residues) at 1 uM using KKLNRTLSFAEPG as substrate after 40 mins in presence of [gamma-33P]ATP by scintillation counting method.

Chain of Epidermal growth factor receptor (Homo sapiens) (P00533 whole entry): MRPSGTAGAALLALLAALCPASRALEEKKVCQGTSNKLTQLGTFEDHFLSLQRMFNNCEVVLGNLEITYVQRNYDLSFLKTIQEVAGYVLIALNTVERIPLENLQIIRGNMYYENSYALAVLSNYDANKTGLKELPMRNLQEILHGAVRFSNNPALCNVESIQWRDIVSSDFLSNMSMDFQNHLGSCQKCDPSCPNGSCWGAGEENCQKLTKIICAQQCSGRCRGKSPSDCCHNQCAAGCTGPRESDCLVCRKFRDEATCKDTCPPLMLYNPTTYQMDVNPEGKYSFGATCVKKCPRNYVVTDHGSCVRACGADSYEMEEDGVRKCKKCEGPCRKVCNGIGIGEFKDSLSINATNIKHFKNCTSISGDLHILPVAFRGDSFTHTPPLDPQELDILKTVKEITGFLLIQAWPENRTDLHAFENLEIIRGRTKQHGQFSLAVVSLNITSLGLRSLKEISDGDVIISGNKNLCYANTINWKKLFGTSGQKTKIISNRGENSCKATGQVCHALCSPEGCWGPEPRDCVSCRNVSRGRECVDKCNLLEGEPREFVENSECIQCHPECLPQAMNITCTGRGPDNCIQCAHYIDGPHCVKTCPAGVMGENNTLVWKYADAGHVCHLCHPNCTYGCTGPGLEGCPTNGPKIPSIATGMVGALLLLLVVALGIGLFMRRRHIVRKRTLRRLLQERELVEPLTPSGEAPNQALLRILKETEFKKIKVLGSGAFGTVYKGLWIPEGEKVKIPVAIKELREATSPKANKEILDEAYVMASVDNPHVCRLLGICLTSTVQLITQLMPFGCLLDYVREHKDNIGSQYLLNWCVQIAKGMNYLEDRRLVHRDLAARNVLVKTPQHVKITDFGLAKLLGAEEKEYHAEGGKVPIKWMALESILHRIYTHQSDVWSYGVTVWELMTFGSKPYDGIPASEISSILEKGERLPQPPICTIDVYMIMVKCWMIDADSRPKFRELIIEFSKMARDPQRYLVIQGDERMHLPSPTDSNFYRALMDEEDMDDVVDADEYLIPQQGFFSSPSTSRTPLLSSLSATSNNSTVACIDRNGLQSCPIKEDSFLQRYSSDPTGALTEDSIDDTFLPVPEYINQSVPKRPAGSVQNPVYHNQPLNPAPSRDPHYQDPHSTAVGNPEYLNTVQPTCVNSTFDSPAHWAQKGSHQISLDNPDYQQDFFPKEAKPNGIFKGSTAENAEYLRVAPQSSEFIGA
Chain of Mitogen-activated protein kinase 1 (Homo sapiens) (P28482 whole entry): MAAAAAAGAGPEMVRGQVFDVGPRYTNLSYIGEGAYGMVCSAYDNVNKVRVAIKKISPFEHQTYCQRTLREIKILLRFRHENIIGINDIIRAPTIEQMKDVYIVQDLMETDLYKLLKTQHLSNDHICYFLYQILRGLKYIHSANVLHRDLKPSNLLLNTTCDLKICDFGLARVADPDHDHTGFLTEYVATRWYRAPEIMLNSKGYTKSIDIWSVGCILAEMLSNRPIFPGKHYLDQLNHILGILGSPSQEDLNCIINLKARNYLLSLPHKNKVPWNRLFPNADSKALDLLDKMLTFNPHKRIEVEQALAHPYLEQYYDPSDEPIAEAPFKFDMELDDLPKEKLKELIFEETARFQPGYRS
Chain of Discoidin domain-containing receptor 2 (Homo sapiens) (Q16832 whole entry, the tested form may be a part): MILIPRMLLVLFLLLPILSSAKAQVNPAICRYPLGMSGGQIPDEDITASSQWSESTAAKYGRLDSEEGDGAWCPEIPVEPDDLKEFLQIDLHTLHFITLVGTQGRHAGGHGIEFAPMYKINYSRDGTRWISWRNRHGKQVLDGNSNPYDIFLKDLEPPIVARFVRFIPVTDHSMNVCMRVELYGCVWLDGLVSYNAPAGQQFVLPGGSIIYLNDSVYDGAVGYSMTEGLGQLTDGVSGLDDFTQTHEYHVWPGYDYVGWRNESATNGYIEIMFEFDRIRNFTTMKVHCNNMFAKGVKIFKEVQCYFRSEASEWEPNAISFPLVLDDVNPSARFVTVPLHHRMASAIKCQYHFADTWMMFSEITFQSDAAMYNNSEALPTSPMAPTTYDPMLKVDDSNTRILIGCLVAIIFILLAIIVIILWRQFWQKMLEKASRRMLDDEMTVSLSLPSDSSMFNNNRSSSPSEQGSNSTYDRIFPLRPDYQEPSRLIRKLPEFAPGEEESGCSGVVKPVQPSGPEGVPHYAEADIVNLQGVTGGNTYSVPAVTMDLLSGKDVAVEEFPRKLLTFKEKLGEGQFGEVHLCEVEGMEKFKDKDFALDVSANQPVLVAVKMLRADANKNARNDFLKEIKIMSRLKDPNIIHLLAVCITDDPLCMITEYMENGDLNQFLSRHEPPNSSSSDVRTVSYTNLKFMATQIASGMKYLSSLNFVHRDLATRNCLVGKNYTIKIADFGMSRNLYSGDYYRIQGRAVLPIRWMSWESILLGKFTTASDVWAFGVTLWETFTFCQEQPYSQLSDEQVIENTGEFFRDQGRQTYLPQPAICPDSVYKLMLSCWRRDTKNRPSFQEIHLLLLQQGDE

The term inhibition denotes the relative decrease from the control value, in per cent. Take `CS(=O)(=O)c1ccc(-n2nc(-c3cnc4[nH]ccc4c3)c3c(N)ncnc32)cc1`: the inhibition was 5% in assay [1]; -4% in [2]; 3% in [3]; 4% in [4]; 16% in assay [5]; 9% in assay [6]. The inhibition in [7] is 11%; in assay [8], 3%; in [9], 69%; in the assay on Saccharomyces cerevisiae, 38%; in assay [10], -1%; in [11], 7%. The inhibition is 4% in [12]; 89% in assay [13]; -5% in [14]; 10% in assay [15]; 31% in assay [16]; -4% in assay [17]. Besides, the inhibition in assay [18] was -4%; in assay [19], 11%; in [20] it was 1%; in [21] it was -4%; in [22], 3%; in [23] it was -8%.
